Data as given in patent publication US9677052B2, “Modified lipopolysaccharide glycoform and method of use” (THE TRUSTEES OF PRINCETON UNIVERSITY, priority 2014, dated 2017).

Key:
[1] = Surface plasmon resonance, vancomycin over reference channel (LPS from waaL+); type: binding, Escherichia coli; details: SPR, 25° C., different concentrations of vancomycin
Protocol: Purified LPS (0.5 mg/ml) from strains MG1210 or MG1211 were extruded in 20 mMTris/HCl pH 8, 150 mM NaCl and immobilized on poly-L-lysine coated CM3 Biacore chips on the active and reference channel, respectively (Malojcić et al., 2014). All experiments were performed using a Biacore X100 instrument at 25° C. at a flow rate of 10 μl/min with 20 mMTris/HCl pH 8, 150 mM NaCl buffer. Different concentrations of vancomycin were injected for 400 s and dissociation was recorded for another 500 s to return to baseline. […] The equilibrium signal in the difference channel was fitted to f=Bmax*abs(x)/(Kd+abs(x)) with R^2=0.88.

[2] = Surface plasmon resonance, vancomycin over immobilized purified LPS*; design: species or system Escherichia coli; details: SPR, Biacore X100, 25° C., LPS* immobilized on CM3 chip, equilibrium signal fit; read-out: Kd, specific binding of vancomycin to LPS*
Protocol: (§1) The ability of purified LPS* to bind vancomycin in vitro was assessed. LPS* was immobilized on a carboxymethylated dextran (CM3) chip and surface plasmon resonance was used to monitor interactions with differing concentrations of vancomycin. […] To test this hypothesis, weperformed live cell microscopy using a fluorescent vancomycin-BODIPY. A wild-type strain background with an intact OM that prevents the influx of vancomycin was used, to avoid labeling intracellular sites of PG synthesis.

[3] = tested on: waaL+ cells; details: 1 μg/ml vancomycin-BODIPY-FL, 10 min, wild-type background with intact OM
Protocol: (§2) Overnight cultures were sub-cultured at 1:100 into fresh LB broth and grown for 1.5 h. A1 ml aliquot was taken, pelleted and was twice washed with 1 ml M63 medium. Cells were resuspended in 0.1 ml of M63 broth containing 1 μg/ml of vancomycin-BODIPY-FL (LifeTechnologies, V-34850). Cells were incubated at room temperature for 10 min and then washed twice with 1 ml M63 broth. Cells were then resuspended in 0.03 ml of M63 broth, and approximately […] was spotted onto an M63-agarose pad. Cells were immediately visualized on a Nikon Eclipse 90i microscope with a Nikon Plan Apo 1.4/100× Oil Ph3 phase objective.
as §1

[4] = tested on: waaL15 bacteria; details: 1 μg/ml vancomycin-BODIPY-FL, 10 min, wild-type background with intact OM
Protocol: as §2, §1

Row | Compound | binding to the reference channel [1] | Kd [2] [nM] | fluorescent labeling of cells [3] | fluorescent labeling of cells [4]
1 | CN[C@H](CC(C)C)C(=O)N[C@H]1C(=O)N[C@@H](CC(N)=O)C(=O)N[C@H]2C(=O)N[C@H]3C(=O)N[C@H](C(=O)N[C@H](C(=O)O)c4cc(O)cc(O)c4-c4cc3ccc4O)[C@H](O)c3ccc(c(Cl)c3)Oc3cc2cc(c3O[C@@H]2O[C@H](CO)[C@@H](O)[C@H](O)[C@H]2O[C@H]2C[C@](C)(N)[C@H](O)[C@H](C)O2)Oc2ccc(cc2Cl)[C@H]1O [vancomycin] | No binding | 480 ± 80 |  | 
2 | vancomycin-BODIPY-FL |  |  | could not be fluorescently labeled | circumferential labeling
